{"source": "paper PMC5674494", "about": "“Use of Cyclic Backbone NGR-Based SPECT to Increase Efficacy of Postmyocardial Infarction Angiogenesis Imaging” (Contrast Media & Molecular Imaging, 2017)", "key": {"in vitro": {"experiment": "in vitro", "format": "in vitro ADME", "conditions": "human, whole blood", "procedure": "^111[…], or ^111In-co(NGR)4 was added to […] human blood in heparin (BD Biosciences, […], The Netherlands). Blood stability was tested at 0, 10, 30, and 50 min. For each time point imaging agents were separated from blood cells and proteins by adding 0.5 mL MeCN (VWR International BV, Breda, The Netherlands) to 0.5 mL blood sample followed by centrifugation (2,000 ×g, 3 min). Supernatant samples were analyzed by HPLC using the above-mentioned method."}, "[1]": {"experiment": "Octanol/water partition coefficient (logP)", "format": "physicochemical", "conditions": "111In-labeled tracer, separate experiment 2 of 3, N = 3, method as ref 22", "procedure": "The logP value of each compound was determined in three separate experiments as described previously."}, "[2]": {"experiment": "Micro-SPECT myocardial perfusion, SUV of 99mTc-sestamibi in heart segments", "format": "in vivo, Swiss mice", "conditions": "i.v., last of 4 15-min SPECT frames, mean ± SEM", "procedure": "In 10–12-week-old male Swiss mice, we induced MI by ligation of the left anterior descending coronary artery (LAD) as described before to test coNGR (n = 5) or co(NGR)4 (n = 8). […] SPECT imaging was performed 7 days after MI or sham surgery. All animals were held under the guidelines of the animal care facility (Maastricht University). All animal experiments were approved by the Committee for Animal Welfare of Maastricht University.\nMice were anesthetized with isoflurane (induction 2.5%; maintenance 1.5%), a catheter was placed in a tail vein, and animals were positioned in the SPECT camera (MILabs, Utrecht, The Netherlands). Prior to image acquisition, a bolus injection of ^99mTc-sestamibi and ^111In-coNGR or ^111In-co(NGR)4 was given intravenously (i.v.) in a maximum volume of 200 µL. Table S1 in Supplementary Material available online at https://doi.org/10.1155/2017/8638549 provides an overview of the average injected dose. Immediately after injection, 4 consecutive time frames of 15 min each were acquired. For image quantification we used the last of these frames.\nAcquired list mode data was reconstructed using MILabs reconstruction software (version 2.51) employing the POS-EM algorithm (6 iterations and 16 subsets, reconstructed at a voxel size of 0.4 mm). ^99mTc and ^111In images were reconstructed by selecting photo peak and background energy levels as described before.\nTo allow quantification of imaging agent uptake, in vivo isotope-specific conversion factors (CF) were determined for the 0.6 mm collimator in a representative phantom with a known activity. Using the previously described method the following conversion factors (CF), CF99mTc 612 MBq/mL and CF111In 643 MBq/mL, were found.\nPMOD 3.7 cardiac tool PCARD (PMOD technologies, Zürich, Switzerland) was used to segment the heart in the 17-segment model. Uptake per segment was subsequently expressed as a mean standardized uptake value (SUVmean), also using the previously described method. For body weight, we assumed that 1 g equalled 1 mL."}, "[3]": {"conditions": "MI mice (n = 5), coNGR group, 7 days after LAD ligation"}, "[4]": {"conditions": "MI mice (n = 8), co(NGR)4 group, 7 days after LAD ligation"}, "[5]": {"conditions": "Sham-operated mice (n = 6), co(NGR)4 group, 7 days after surgery"}}, "note": "Positions of bridges follow the written chain, without caps; N, C: chain ends. Residues, ends and D or L forms follow the SMILES beside them. *: point of attachment. X1 = N[C@@H](CSC1CC(=O)N(CC2CCC(C(=O)NCCCCC(C(=O)O)N(CCN(CC(=O)O)CC(=O)O)CCN(CC(=O)O)CC(=O)O)CC2)C1=O)C(=O)*"}
{"smiles": "CC(=O)N[C@H]1CSSC[C@@H](C(=O)NCC(=O)NCC(=O)N[C@@H](CCCCNC(=O)[C@@H](N)CSC2CC(=O)N(CC3CCC(C(=O)NCCCCC(C(=O)O)N(CCN(CC(=O)O)CC(=O)O)CCN(CC(=O)O)CC(=O)O)CC3)C2=O)C(N)=O)NC(=O)[C@H](CCCNC(=N)N)NC(=O)CNC(=O)[C@H](CC(N)=O)NC1=O", "note": "(stereo partly drawn) [cNGR, cyclic(NAc-Cys-Asn-Gly-Arg-Cys-Gly-Gly-Lys)] (Ac-CNGRCGGK(X1)-NH2; disulfide 1-5)", "values": [{"measurement": "remaining at 50 min", "setting": "in vitro", "value": 7.55, "unit": "%"}, {"measurement": "logP2", "setting": "[1]", "value": "−4.17 ± 0.01"}]}
{"smiles": "[C-]#[N+]CC(C)(C)OC.[C-]#[N+]CC(C)(C)OC.[C-]#[N+]CC(C)(C)OC.[C-]#[N+]CC(C)(C)OC.[C-]#[N+]CC(C)(C)OC.[C-]#[N+]CC(C)(C)OC.[Tc]", "note": "[^99mTc-sestamibi]", "values": [{"measurement": "SUV of 99mTc-sestamibi, segment 1. Basal anterior", "setting": "[2]; [3]", "value": "2.46 ± 0.45"}, {"measurement": "SUV of 99mTc-sestamibi, segment 2. Basal anteroseptal", "setting": "[2]; [3]", "value": "2.28 ± 0.39"}, {"measurement": "SUV of 99mTc-sestamibi, segment 3. Basal inferoseptal", "setting": "[2]; [3]", "value": "2.33 ± 0.38"}, {"measurement": "SUV of 99mTc-sestamibi, segment 4. Basal inferior", "setting": "[2]; [3]", "value": "2.60 ± 0.56"}, {"measurement": "SUV of 99mTc-sestamibi, segment 5. Basal inferolateral", "setting": "[2]; [3]", "value": "2.23 ± 0.63"}, {"measurement": "SUV of 99mTc-sestamibi, segment 6. Basal anterolateral", "setting": "[2]; [3]", "value": "2.14 ± 0.52"}, {"measurement": "SUV of 99mTc-sestamibi, segment 7. Mid anterior", "setting": "[2]; [3]", "value": "1.41 ± 0.28"}, {"measurement": "SUV of 99mTc-sestamibi, segment 8. Mid anteroseptal", "setting": "[2]; [3]", "value": "2.46 ± 0.39"}, {"measurement": "SUV of 99mTc-sestamibi, segment 9. Mid inferoseptal", "setting": "[2]; [3]", "value": "2.27 ± 0.53"}, {"measurement": "SUV of 99mTc-sestamibi, segment 10. Mid inferior", "setting": "[2]; [3]", "value": "1.64 ± 0.67"}, {"measurement": "SUV of 99mTc-sestamibi, segment 11. Mid inferolateral", "setting": "[2]; [3]", "value": "0.75 ± 0.24"}, {"measurement": "SUV of 99mTc-sestamibi, segment 12. Mid anterolateral", "setting": "[2]; [3]", "value": "0.42 ± 0.09"}, {"measurement": "SUV of 99mTc-sestamibi, segment 13. Apical anterior", "setting": "[2]; [3]", "value": "0.71 ± 0.30"}, {"measurement": "SUV of 99mTc-sestamibi, segment 14. Apical septal", "setting": "[2]; [3]", "value": "1.67 ± 0.39"}, {"measurement": "SUV of 99mTc-sestamibi, segment 15. Apical inferior", "setting": "[2]; [3]", "value": "1.30 ± 0.31"}, {"measurement": "SUV of 99mTc-sestamibi, segment 16. Apical lateral", "setting": "[2]; [3]", "value": "0.59 ± 0.26"}, {"measurement": "SUV of 99mTc-sestamibi, segment 17. Apex", "setting": "[2]; [3]", "value": "0.98 ± 0.35"}, {"measurement": "SUV of 99mTc-sestamibi, segment 1. Basal anterior", "setting": "[2]; [4]", "value": "2.60 ± 0.70"}, {"measurement": "SUV of 99mTc-sestamibi, segment 2. Basal anteroseptal", "setting": "[2]; [4]", "value": "3.68 ± 0.42"}, {"measurement": "SUV of 99mTc-sestamibi, segment 3. Basal inferoseptal", "setting": "[2]; [4]", "value": "3.97 ± 0.49"}, {"measurement": "SUV of 99mTc-sestamibi, segment 4. Basal inferior", "setting": "[2]; [4]", "value": "3.06 ± 0.54"}, {"measurement": "SUV of 99mTc-sestamibi, segment 5. Basal inferolateral", "setting": "[2]; [4]", "value": "1.66 ± 0.47"}, {"measurement": "SUV of 99mTc-sestamibi, segment 6. Basal anterolateral", "setting": "[2]; [4]", "value": "1.60 ± 0.55"}, {"measurement": "SUV of 99mTc-sestamibi, segment 7. Mid anterior", "setting": "[2]; [4]", "value": "1.35 ± 0.31"}, {"measurement": "SUV of 99mTc-sestamibi, segment 8. Mid anteroseptal", "setting": "[2]; [4]", "value": "3.56 ± 0.47"}, {"measurement": "SUV of 99mTc-sestamibi, segment 9. Mid inferoseptal", "setting": "[2]; [4]", "value": "3.57 ± 0.68"}, {"measurement": "SUV of 99mTc-sestamibi, segment 10. Mid inferior", "setting": "[2]; [4]", "value": "2.21 ± 0.52"}, {"measurement": "SUV of 99mTc-sestamibi, segment 11. Mid inferolateral", "setting": "[2]; [4]", "value": "0.68 ± 0.07"}, {"measurement": "SUV of 99mTc-sestamibi, segment 12. Mid anterolateral", "setting": "[2]; [4]", "value": "0.62 ± 0.07"}, {"measurement": "SUV of 99mTc-sestamibi, segment 13. Apical anterior", "setting": "[2]; [4]", "value": "1.04 ± 0.25"}, {"measurement": "SUV of 99mTc-sestamibi, segment 14. Apical septal", "setting": "[2]; [4]", "value": "2.68 ± 0.30"}, {"measurement": "SUV of 99mTc-sestamibi, segment 15. Apical inferior", "setting": "[2]; [4]", "value": "2.06 ± 0.24"}, {"measurement": "SUV of 99mTc-sestamibi, segment 16. Apical lateral", "setting": "[2]; [4]", "value": "0.67 ± 0.11"}, {"measurement": "SUV of 99mTc-sestamibi, segment 17. Apex", "setting": "[2]; [4]", "value": "1.25 ± 0.32"}, {"measurement": "SUV of 99mTc-sestamibi, segment 1. Basal anterior", "setting": "[2]; [5]", "value": "2.91 ± .026"}, {"measurement": "SUV of 99mTc-sestamibi, segment 2. Basal anteroseptal", "setting": "[2]; [5]", "value": "2.72 ± 0.32"}, {"measurement": "SUV of 99mTc-sestamibi, segment 3. Basal inferoseptal", "setting": "[2]; [5]", "value": "2.89 ± 0.33"}, {"measurement": "SUV of 99mTc-sestamibi, segment 4. Basal inferior", "setting": "[2]; [5]", "value": "3.07 ± 0.33"}, {"measurement": "SUV of 99mTc-sestamibi, segment 5. Basal inferolateral", "setting": "[2]; [5]", "value": "3.03 ± 0.30"}, {"measurement": "SUV of 99mTc-sestamibi, segment 6. Basal anterolateral", "setting": "[2]; [5]", "value": "2.89 ± 0.20"}, {"measurement": "SUV of 99mTc-sestamibi, segment 7. Mid anterior", "setting": "[2]; [5]", "value": "3.00 ± 0.22"}, {"measurement": "SUV of 99mTc-sestamibi, segment 8. Mid anteroseptal", "setting": "[2]; [5]", "value": "3.10 ± 0.28"}, {"measurement": "SUV of 99mTc-sestamibi, segment 9. Mid inferoseptal", "setting": "[2]; [5]", "value": "3.16 ± 0.26"}, {"measurement": "SUV of 99mTc-sestamibi, segment 10. Mid inferior", "setting": "[2]; [5]", "value": "3.03 ± 0.29"}, {"measurement": "SUV of 99mTc-sestamibi, segment 11. Mid inferolateral", "setting": "[2]; [5]", "value": "3.06 ± 0.34"}, {"measurement": "SUV of 99mTc-sestamibi, segment 12. Mid anterolateral", "setting": "[2]; [5]", "value": "2.77 ± 0.22"}, {"measurement": "SUV of 99mTc-sestamibi, segment 13. Apical anterior", "setting": "[2]; [5]", "value": "2.93 ± 0.22"}, {"measurement": "SUV of 99mTc-sestamibi, segment 14. Apical septal", "setting": "[2]; [5]", "value": "3.23 ± 0.24"}, {"measurement": "SUV of 99mTc-sestamibi, segment 15. Apical inferior", "setting": "[2]; [5]", "value": "2.88 ± 0.32"}, {"measurement": "SUV of 99mTc-sestamibi, segment 16. Apical lateral", "setting": "[2]; [5]", "value": "2.44 ± 0.20"}, {"measurement": "SUV of 99mTc-sestamibi, segment 17. Apex", "setting": "[2]; [5]", "value": "2.71 ± 0.25"}]}
